In US20250114486A1, “MARKED FATTY ACID DERIVATIVE, PRECURSOR COMPOUND THEREOF, AND USE THEREOF IN CONTRAST AGENT” (BEIJING NORMAL UNIVERSITY, priority 2022, published 2025):

Assay: In vivo biodistribution in female Kunming mice
Details: for Biodistribution: Large Intestine / Biodistribution: Small Intestine / Biodistribution: Stomach: unit % ID
Procedure: Female Kunming mice (20-22 g, n=3) were fasted for 12 h before the experiment, and the purified radioactive ^99mTc complex 130 was dissolved in a normal saline (containing 10% ethanol) solution (about 100 μCi/mL). Female Kunming mice were injected with 100 μL of the above solution through the tail vein, and the mice were killed by cervical dislocation at 5, 15, 30, 60, and 120 min post-injection, respectively. Blood, brain, heart, liver, spleen, lung, kidney, muscle, bone, large intestine, small intestine, stomach and tail were collected, weighed and counted, and the count distribution of each tissue and organ was calculated (unit: % ID/g, the unit of large intestine, small intestine and stomach was % ID), and the data were the mean±standard deviation of three mice in each time phase. At the same time, 100 μL of the above solution was diluted to 10 mL, which was used as the % ID without deducting the tail count.
The corresponding radioactive ^99mTc complex 158 as the typical compounds of the general formula V in this application was selected to conduct an in vivo biodistribution study in female Kunming mice. The specific experimental method was shown in the experimental method of “In vivo biodistribution study of radioactive ^99mTc complex 130 in female Kunming mice” in Example 7 above.

COC(C)(C)C[N+]#[C][99Tc-5]([C]#[N+]CC(C)(C)OC)([C]#[N+]CC(C)(C)OC)([C]#[N+]CC(C)(C)OC)([C]#[N+]CC(C)(C)OC)[C]#[N+]CC(C)(C)OCCCS(=O)(=O)CCCCCSCCCCC(=O)O [^99mTc complex 130]
Biodistribution: Blood (5 min post-injection): 0.54 ± 0.07 ID %/g
Biodistribution: Bone (5 min post-injection): 0.54 ± 0.10 ID %/g
Biodistribution: Brain (5 min post-injection): 0.04 ± 0.00 ID %/g
Biodistribution: Heart (5 min post-injection): 2.14 ± 0.25 ID %/g
Biodistribution: Kidney (5 min post-injection): 9.64 ± 0.08 ID %/g
Biodistribution: Liver (5 min post-injection): 53.13 ± 4.86 ID %/g
Biodistribution: Lungs (5 min post-injection): 0.84 ± 0.09 ID %/g
Biodistribution: Muscle (5 min post-injection): 0.75 ± 0.06 ID %/g
Biodistribution: Spleen (5 min post-injection): 0.67 ± 0.04 ID %/g
Heart-to-Blood ratio (5 min post-injection): 3.96
Heart-to-Liver ratio (5 min post-injection): 0.04
Heart-to-Lungs ratio (5 min post-injection): 2.55
Heart-to-Muscle ratio (5 min post-injection): 2.85
Biodistribution: Large Intestine (5 min post-injection): 0.53 ± 0.10 % ID
Biodistribution: Small Intestine (5 min post-injection): 4.32 ± 0.25 % ID
Biodistribution: Stomach (5 min post-injection): 0.17 ± 0.02 % ID
Biodistribution: Blood (15 min post-injection): 0.24 ± 0.01 ID %/g
Biodistribution: Bone (15 min post-injection): 0.76 ± 0.13 ID %/g
Biodistribution: Brain (15 min post-injection): 0.03 ± 0.01 ID %/g
Biodistribution: Heart (15 min post-injection): 1.92 ± 0.18 ID %/g
Biodistribution: Kidney (15 min post-injection): 7.89 ± 0.19 ID %/g
Biodistribution: Liver (15 min post-injection): 42.04 ± 2.91 ID %/g
Biodistribution: Lungs (15 min post-injection): 0.76 ± 0.03 ID %/g
Biodistribution: Muscle (15 min post-injection): 0.67 ± 0.07 ID %/g
Biodistribution: Spleen (15 min post-injection): 0.50 ± 0.03 ID %/g
Heart-to-Blood ratio (15 min post-injection): 8.00
Heart-to-Liver ratio (15 min post-injection): 0.05
Heart-to-Lungs ratio (15 min post-injection): 2.53
Heart-to-Muscle ratio (15 min post-injection): 2.87
Biodistribution: Large Intestine (15 min post-injection): 0.82 ± 0.34 % ID
Biodistribution: Small Intestine (15 min post-injection): 20.74 ± 0.83 % ID
Biodistribution: Stomach (15 min post-injection): 0.26 ± 0.01 % ID
Biodistribution: Blood (30 min post-injection): 0.12 ± 0.04 ID %/g
Biodistribution: Bone (30 min post-injection): 0.33 ± 0.12 ID %/g
Biodistribution: Brain (30 min post-injection): 0.02 ± 0.01 ID %/g
Biodistribution: Heart (30 min post-injection): 1.54 ± 0.38 ID %/g
Biodistribution: Kidney (30 min post-injection): 2.51 ± 0.58 ID %/g
Biodistribution: Liver (30 min post-injection): 18.08 ± 0.30 ID %/g
Biodistribution: Lungs (30 min post-injection): 0.28 ± 0.05 ID %/g
Biodistribution: Muscle (30 min post-injection): 0.59 ± 0.16 ID %/g
Biodistribution: Spleen (30 min post-injection): 0.31 ± 0.05 ID %/g
Heart-to-Blood ratio (30 min post-injection): 12.83
Heart-to-Liver ratio (30 min post-injection): 0.09
Heart-to-Lungs ratio (30 min post-injection): 5.50
Heart-to-Muscle ratio (30 min post-injection): 2.61
Biodistribution: Large Intestine (30 min post-injection): 1.56 ± 0.16 % ID
Biodistribution: Small Intestine (30 min post-injection): 29.63 ± 3.26 % ID
Biodistribution: Stomach (30 min post-injection): 0.12 ± 0.04 % ID
Biodistribution: Blood (60 min post-injection): 0.08 ± 0.01 ID %/g
Biodistribution: Bone (60 min post-injection): 0.15 ± 0.03 ID %/g
Biodistribution: Brain (60 min post-injection): 0.02 ± 0.00 ID %/g
Biodistribution: Heart (60 min post-injection): 1.37 ± 0.26 ID %/g
Biodistribution: Kidney (60 min post-injection): 1.20 ± 0.10 ID %/g
Biodistribution: Liver (60 min post-injection): 15.12 ± 1.7 ID %/g
Biodistribution: Lungs (60 min post-injection): 0.19 ± 0.01 ID %/g
Biodistribution: Muscle (60 min post-injection): 0.43 ± 0.09 ID %/g
Biodistribution: Spleen (60 min post-injection): 0.14 ± 0.03 ID %/g
Heart-to-Blood ratio (60 min post-injection): 17.13
Heart-to-Liver ratio (60 min post-injection): 0.09
Heart-to-Lungs ratio (60 min post-injection): 7.21
Heart-to-Muscle ratio (60 min post-injection): 3.19
Biodistribution: Large Intestine (60 min post-injection): 16.13 ± 5.3 % ID
Biodistribution: Small Intestine (60 min post-injection): 26.18 ± 3.9 % ID
Biodistribution: Stomach (60 min post-injection): 0.29 ± 0.05 % ID
Biodistribution: Blood (120 min post-injection): 0.04 ± 0.01 ID %/g
Biodistribution: Bone (120 min post-injection): 0.09 ± 0.01 ID %/g
Biodistribution: Brain (120 min post-injection): 0.02 ± 0.01 ID %/g
Biodistribution: Heart (120 min post-injection): 1.27 ± 0.03 ID %/g
Biodistribution: Kidney (120 min post-injection): 0.30 ± 0.04 ID %/g
Biodistribution: Liver (120 min post-injection): 3.74 ± 0.98 ID %/g
Biodistribution: Lungs (120 min post-injection): 0.19 ± 0.05 ID %/g
Biodistribution: Muscle (120 min post-injection): 0.38 ± 0.10 ID %/g
Biodistribution: Spleen (120 min post-injection): 0.13 ± 0.02 ID %/g
Heart-to-Blood ratio (120 min post-injection): 31.75
Heart-to-Liver ratio (120 min post-injection): 0.34
Heart-to-Lungs ratio (120 min post-injection): 6.68
Heart-to-Muscle ratio (120 min post-injection): 3.34
Biodistribution: Large Intestine (120 min post-injection): 34.11 ± 4.52 % ID
Biodistribution: Small Intestine (120 min post-injection): 7.50 ± 2.45 % ID
Biodistribution: Stomach (120 min post-injection): 0.17 ± 0.12 % ID
absolute myocardial uptake (assessment) (after tail vein injection): relatively low
